Measurements as given in PMC5333395, “Assessing histone demethylase inhibitors in cells: lessons learned” (Epigenetics & Chromatin, 2017).

Assays:
Test in all cases: AlphaScreen in vitro demethylase assay
Assay type in all cases: biochemical
[1] = biological target: T1, KDM2A (Homo sapiens, UniProt Q9Y2K7); settings: IC50 ± SD (number of replicates)
T1 sequence (Q9Y2K7 1-1162): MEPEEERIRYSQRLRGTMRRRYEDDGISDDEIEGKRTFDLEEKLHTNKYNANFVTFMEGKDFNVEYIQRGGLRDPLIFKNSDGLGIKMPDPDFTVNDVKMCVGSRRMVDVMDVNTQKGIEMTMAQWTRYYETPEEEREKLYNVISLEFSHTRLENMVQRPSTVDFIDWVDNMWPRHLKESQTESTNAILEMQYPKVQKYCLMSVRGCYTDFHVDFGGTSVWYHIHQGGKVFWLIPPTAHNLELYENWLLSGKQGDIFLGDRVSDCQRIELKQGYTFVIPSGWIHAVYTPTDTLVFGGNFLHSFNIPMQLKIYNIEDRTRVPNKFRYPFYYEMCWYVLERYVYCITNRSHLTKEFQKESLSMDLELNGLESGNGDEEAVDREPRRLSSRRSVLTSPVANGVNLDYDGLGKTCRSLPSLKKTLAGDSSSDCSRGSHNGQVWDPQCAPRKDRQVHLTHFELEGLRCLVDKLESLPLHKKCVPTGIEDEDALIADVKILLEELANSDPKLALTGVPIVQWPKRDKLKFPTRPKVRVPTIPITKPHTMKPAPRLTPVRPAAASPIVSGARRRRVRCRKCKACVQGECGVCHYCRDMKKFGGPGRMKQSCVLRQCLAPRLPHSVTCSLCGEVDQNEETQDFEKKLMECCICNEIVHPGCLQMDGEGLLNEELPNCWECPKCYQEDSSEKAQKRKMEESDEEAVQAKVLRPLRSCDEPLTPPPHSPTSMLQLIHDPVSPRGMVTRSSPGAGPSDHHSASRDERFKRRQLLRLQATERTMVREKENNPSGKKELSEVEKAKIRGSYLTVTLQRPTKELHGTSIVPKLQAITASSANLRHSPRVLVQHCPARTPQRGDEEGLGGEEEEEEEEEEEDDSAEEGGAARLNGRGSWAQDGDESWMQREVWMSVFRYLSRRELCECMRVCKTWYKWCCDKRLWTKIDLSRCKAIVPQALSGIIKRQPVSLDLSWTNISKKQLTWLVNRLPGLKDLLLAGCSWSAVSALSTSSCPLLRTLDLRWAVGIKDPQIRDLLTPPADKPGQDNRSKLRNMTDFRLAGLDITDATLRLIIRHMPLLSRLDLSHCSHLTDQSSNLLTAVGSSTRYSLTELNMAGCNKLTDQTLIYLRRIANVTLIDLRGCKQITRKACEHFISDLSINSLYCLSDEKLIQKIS
Method: (§1) IC50 values were determined as previously described. The following amendments were made to the protocol for carrying out 2-OG competition assays.

[2] = biological target: T2, KDM3A (Homo sapiens, UniProt Q9Y4C1); settings: IC50 ± SD (number of replicates)
T2 sequence (Q9Y4C1 1-1321): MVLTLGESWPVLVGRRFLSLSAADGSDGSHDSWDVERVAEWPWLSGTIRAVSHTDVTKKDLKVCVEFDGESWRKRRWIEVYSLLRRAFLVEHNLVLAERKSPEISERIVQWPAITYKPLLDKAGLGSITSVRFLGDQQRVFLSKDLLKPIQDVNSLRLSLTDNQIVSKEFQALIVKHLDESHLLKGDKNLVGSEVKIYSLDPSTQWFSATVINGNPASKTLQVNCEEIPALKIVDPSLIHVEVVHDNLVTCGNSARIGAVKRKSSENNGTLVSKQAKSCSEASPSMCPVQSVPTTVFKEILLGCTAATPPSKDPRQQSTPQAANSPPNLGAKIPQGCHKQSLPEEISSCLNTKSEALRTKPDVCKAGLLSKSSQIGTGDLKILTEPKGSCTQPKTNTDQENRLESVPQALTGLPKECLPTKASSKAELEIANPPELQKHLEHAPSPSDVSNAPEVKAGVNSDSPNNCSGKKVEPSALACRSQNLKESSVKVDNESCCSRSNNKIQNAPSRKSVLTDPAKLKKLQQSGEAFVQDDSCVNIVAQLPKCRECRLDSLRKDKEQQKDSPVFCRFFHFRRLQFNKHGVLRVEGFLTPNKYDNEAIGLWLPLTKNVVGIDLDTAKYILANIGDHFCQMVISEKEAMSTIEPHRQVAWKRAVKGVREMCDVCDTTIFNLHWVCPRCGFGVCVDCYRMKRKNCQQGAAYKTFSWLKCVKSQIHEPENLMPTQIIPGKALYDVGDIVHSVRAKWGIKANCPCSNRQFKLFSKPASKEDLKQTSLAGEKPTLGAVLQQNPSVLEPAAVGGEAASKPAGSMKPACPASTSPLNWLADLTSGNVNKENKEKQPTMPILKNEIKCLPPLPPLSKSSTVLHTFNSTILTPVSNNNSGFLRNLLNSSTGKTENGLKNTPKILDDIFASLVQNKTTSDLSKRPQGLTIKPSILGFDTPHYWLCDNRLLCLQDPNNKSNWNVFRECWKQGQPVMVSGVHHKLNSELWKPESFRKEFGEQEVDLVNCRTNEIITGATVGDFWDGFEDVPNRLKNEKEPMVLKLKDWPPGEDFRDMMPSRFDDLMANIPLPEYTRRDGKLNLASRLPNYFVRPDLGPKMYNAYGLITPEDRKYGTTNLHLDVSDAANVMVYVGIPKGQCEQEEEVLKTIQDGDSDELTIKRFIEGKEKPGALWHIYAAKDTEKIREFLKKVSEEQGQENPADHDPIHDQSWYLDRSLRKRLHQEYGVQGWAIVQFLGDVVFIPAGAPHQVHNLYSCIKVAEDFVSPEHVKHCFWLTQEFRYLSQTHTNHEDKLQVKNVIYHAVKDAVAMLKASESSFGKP
Method: as §1

[3] = biological target: KDM6B (Homo sapiens, UniProt O15054); settings: AlphaScreen; IC50 ± SD (number of replicates); read-out: KDM6B IC50, in vitro
Chain of KDM6B (O15054 whole entry): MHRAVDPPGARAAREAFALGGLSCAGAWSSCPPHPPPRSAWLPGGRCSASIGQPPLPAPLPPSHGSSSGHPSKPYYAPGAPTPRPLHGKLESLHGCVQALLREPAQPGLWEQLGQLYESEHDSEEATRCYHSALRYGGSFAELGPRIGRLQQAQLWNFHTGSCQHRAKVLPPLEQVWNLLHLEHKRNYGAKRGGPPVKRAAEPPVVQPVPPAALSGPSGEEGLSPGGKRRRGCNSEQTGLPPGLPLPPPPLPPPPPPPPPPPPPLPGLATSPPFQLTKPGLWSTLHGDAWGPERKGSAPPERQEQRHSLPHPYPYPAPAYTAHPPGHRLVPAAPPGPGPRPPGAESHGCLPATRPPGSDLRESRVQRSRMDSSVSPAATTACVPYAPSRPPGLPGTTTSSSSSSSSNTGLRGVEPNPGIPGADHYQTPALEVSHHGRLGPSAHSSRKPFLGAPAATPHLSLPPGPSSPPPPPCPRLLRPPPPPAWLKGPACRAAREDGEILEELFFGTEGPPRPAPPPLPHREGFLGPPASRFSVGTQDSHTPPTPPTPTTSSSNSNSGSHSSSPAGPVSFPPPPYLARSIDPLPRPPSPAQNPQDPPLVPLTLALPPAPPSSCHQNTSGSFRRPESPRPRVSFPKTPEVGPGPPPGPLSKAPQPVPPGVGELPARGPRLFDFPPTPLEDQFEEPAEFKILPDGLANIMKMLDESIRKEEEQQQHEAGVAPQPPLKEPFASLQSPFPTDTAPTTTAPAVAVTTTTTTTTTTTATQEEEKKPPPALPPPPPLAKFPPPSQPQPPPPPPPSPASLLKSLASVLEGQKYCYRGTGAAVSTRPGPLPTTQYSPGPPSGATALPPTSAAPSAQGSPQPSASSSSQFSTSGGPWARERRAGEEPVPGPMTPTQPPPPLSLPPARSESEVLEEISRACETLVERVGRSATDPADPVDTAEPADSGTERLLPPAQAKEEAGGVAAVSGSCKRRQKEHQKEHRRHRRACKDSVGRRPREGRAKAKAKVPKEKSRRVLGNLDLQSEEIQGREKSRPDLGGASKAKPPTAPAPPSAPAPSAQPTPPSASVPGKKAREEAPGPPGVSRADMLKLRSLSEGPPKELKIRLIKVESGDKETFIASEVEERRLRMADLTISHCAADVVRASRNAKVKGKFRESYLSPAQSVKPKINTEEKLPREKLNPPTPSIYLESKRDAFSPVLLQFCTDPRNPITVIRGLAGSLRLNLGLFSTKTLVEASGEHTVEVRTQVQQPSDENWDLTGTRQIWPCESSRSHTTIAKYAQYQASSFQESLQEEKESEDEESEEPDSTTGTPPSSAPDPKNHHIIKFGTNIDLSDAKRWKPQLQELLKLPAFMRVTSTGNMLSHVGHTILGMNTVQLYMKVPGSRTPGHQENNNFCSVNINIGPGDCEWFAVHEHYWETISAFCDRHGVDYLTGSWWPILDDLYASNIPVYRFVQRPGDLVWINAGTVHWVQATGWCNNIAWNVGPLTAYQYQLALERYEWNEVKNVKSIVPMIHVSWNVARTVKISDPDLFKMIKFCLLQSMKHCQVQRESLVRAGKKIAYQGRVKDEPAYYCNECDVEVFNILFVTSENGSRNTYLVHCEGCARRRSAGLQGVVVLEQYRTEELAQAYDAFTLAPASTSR
Method: as §1

Compound | IC50 [1] [µM] | IC50 [2] [nM] | IC50 [3] [µM]
CCN(CCN(C)C)C(=O)CNCc1cc(C(=O)O)ccn1 [KDOAM-20] | 2.2 ± 0.37 | 1200 ± 910 | 1.4 ± 0.45
CPI-455 | 23 ± 3.5 | > 100000 | > 100
CCOC(=O)c1ccnc(CNCC(=O)N(CC)CCN(C)C)c1 [KDOAM-21] | 19 ± 10 | 2600 ± 1300 | 11 ± 4.6
